# Measurements published in patent US4039736A (Bristol-Myers Company, priority 1976, dated 1977).
# Where two headings read alike, the source gives them in different places.
# Key:
# [1] = test system: Klebsiella pneumoniae A-9977; experiment: MIC, standard tube dilution procedure; type: cell-based; conditions: A9977
# [2] = test system: Streptococcus pneumoniae A-9585; experiment: MIC, standard tube dilution procedure; type: cell-based; conditions: A9585
# [3] = test system: Trichophyton mentagrophytes A-9870; experiment: MIC, standard tube dilution procedure; type: cell-based; conditions: A9870
# Candida krusei A-15052 = experiment: MIC, standard tube dilution procedure; type: cell-based; conditions: Pichia kudriavzevii, A15052
# L-1210 leukemia [4] = experiment: transplanted mouse leukemia L-1210 (ascitic); conditions: for Avg. wt. Difference (T-C, g.) / T/C Percent MST: single i.p. injection Day 1
# Procedure: (§1) The compounds of the present invention were also tested against various transplantable rodent tumer systems.
# (§2) Single injection Day 1 intraperitoneally.?
# (§3) T/C percent MST=median survival time in days: Treated/Control × 100
# [5] = test system: Cryptococcus neoformans A-1503; experiment: MIC, standard tube dilution procedure; type: cell-based; conditions: A1503
# [6] = test system: Staphylococcus aureus A-9537; experiment: MIC, standard tube dilution procedure; type: cell-based; conditions: A9537
# Candida albicans A-9540 = experiment: MIC, standard tube dilution procedure; type: cell-based; conditions: A9540
# Escherichia coli A-15119 = experiment: MIC, standard tube dilution procedure; type: cell-based; conditions: A15119
# [7] = test system: Streptococcus pyogenes A-9604; experiment: MIC, standard tube dilution procedure; type: cell-based; conditions: A9604
# L-1210 leukemia [8] = experiment: L-1210 mouse leukemia, purified compounds, BDF1 female mice
# Procedure: Inoculum: 10^6 ascitic cells, i.p. into BDF1 female mice
# Treatment: i.p. in 0.5 ml. volume
# Evaluation: MST = median survival time in days; %T/C = MST treated/MST
# (prolongation of host survival)
# Proteus mirabilis A-9900 = experiment: MIC, standard tube dilution procedure; type: cell-based; conditions: A9900
# [9] = acute intraperitoneal LD50 in mice; conditions: mouse, in vivo, ip
# Escherichia coli A-21780 = experiment: MIC, standard tube dilution procedure; type: cell-based; conditions: A21780
# P-388 leukemia = experiment: transplanted mouse leukemia P-388 (ascitic); conditions: for Avg. wt. Difference (T-C, g.) / T/C Percent MST: single i.p. injection Day 1
# Procedure: as §1, §2, §3
# [10] = test system: Candida tropicalis A-15051; experiment: MIC, standard tube dilution procedure; type: cell-based; conditions: A15051
# [11] = test system: Staphylococcus aureus A-9497; experiment: MIC, standard tube dilution procedure; type: cell-based; conditions: A9497
# [12] = activity of column fractions of bohemic acid complex; conditions: Example 8 large scale fractionation
# Procedure: Sephadex LH-20 soaked for 68 hours in chloroform was slurry packed into a Pharmacia SR 25/100 column (25 mm. I.D. × 100 cm. height) equipped with adjustable teflon tips at each end. The column was packed so as to be completely filled from tip to tip, an effective bed height of 90-95 cm. Bohemic acid complex (500 mg.) was dissolved in 10 ml. chloroform and applied to the column which was then allowed to develop with chloroform by downflow at a take-off rate of 1 ml./min. Eluted liquid was collected in 6 ml. cuts in a fraction collector. Samplings of even numbered tubes were diluted 80-fold with chloroform and read in a Bausch and Lomb Spectronic 20 colorimeter at 490 mμ. Four distinct bands of anthracycline pigments were noted as follows:
# The solids obtained were chromatographed on Brinkmann 60F254 silica gel thin layer plates using an 80:20 toluene:methanol solvent system. […] The second band gave a characteristic pinkish red zone at about Rf =0.75. […] The third fraction to elute gave a single zone with Rf ~0.3. […] The final band to elute gave a zone at Rf ~0.3 and comprised mainly marcellomycin. […]
# A 6 inch (diameter) × 77 inch (height) glass column was equipped at the base with a no clog filter on top of which was placed a layer of glass wool followed by a circular polyethylene frit. […] Aliquots of every fifth fraction were diluted and analyzed as described in Example 7. […]
# Solubility = type: physicochemical
# [13] = 3.2 mg/kg/day i.p., Day 1, 1 injection
# [14] = 3.2 mg/kg/day i.p., Day 1→5, 5 injections
# [15] = 6.4 mg/kg/day i.p., Day 1, 1 injection
# [16] = 6.4 mg/kg/day i.p., Day 1→5, 4 injections
# [17] = 12.8 mg/kg/day i.p., Day 1, 1 injection
# [18] = .2 mg/kg/day i.p., Day 1→5, 5 injections
# [19] = .4 mg/kg/day i.p., Day 1, 1 injection
# [20] = .4 mg/kg/day i.p., Day 1→5, 5 injections
# [21] = .8 mg/kg/day i.p., Day 1, 1 injection
# [22] = .8 mg/kg/day i.p., Day 1→5, 5 injections
# [23] = 6.4 mg/kg/day i.p., Day 1→5, 5 injections
structure (smiles),measurement,setting,value
CC[C@@]1(O)C[C@H](O[C@H]2C[C@H](N(C)C)[C@H](O[C@H]3C[C@H](O)[C@H](O[C@H]4C[C@H](O)[C@H](O)[C@H](C)O4)[C@H](C)O3)[C@H](C)O2)c2c(cc3c(c2O)C(=O)c2c(O)ccc(O)c2C3=O)[C@H]1C(=O)OC [marcellomycin],MIC,[1]; Klebsiella pneumoniae,125 µg/mL
same,MIC,[2]; Streptococcus pneumoniae,0.03 µg/mL
same,MIC,[3]; Trichophyton mentagrophytes,> 125 µg/mL
same,MIC,Candida krusei A-15052,125 µg/mL
same,activity on L-1210 mouse leukemia,L-1210 leukemia [4]; Example 7 column fraction,high activity
same,MIC,[5]; Cryptococcus neoformans,125 µg/mL
same,MIC,[6]; Staphylococcus aureus,1 µg/mL
same,MIC,Candida albicans A-9540; Candida albicans,125 µg/mL
same,MIC,Escherichia coli A-15119; Escherichia coli,125 µg/mL
same,MIC,[7]; Streptococcus pyogenes,0.03 µg/mL
same,Average Weight Change,L-1210 leukemia [8]; [13],-0.7 g
same,MST %T/C,L-1210 leukemia [8]; [13],157%
same,MST Days,L-1210 leukemia [8]; [13],11.0 days
same,Survivors Day 5,L-1210 leukemia [8]; [13],6/6
same,Average Weight Change,L-1210 leukemia [8]; [14],-1.2 g
same,MST %T/C,L-1210 leukemia [8]; [14],86%
same,MST Days,L-1210 leukemia [8]; [14],6.0 days
same,Survivors Day 5,L-1210 leukemia [8]; [14],3/6
same,Average Weight Change,L-1210 leukemia [8]; [15],-0.7 g
same,MST %T/C,L-1210 leukemia [8]; [15],157%
same,MST Days,L-1210 leukemia [8]; [15],11.0 days
same,Survivors Day 5,L-1210 leukemia [8]; [15],6/6
same,Average Weight Change in g.,L-1210 leukemia [8]; [16],TOXIC
same,MST %T/C,L-1210 leukemia [8]; [16],TOXIC
same,MST Days,L-1210 leukemia [8]; [16],TOXIC
same,Survivors Day 5,L-1210 leukemia [8]; [16],0/6
same,Average Weight Change,L-1210 leukemia [8]; [17],-0.7 g
same,MST %T/C,L-1210 leukemia [8]; [17],143%
same,MST Days,L-1210 leukemia [8]; [17],10.0 days
same,Survivors Day 5,L-1210 leukemia [8]; [17],3/6
same,Average Weight Change,L-1210 leukemia [8]; [18],-1.1 g
same,MST %T/C,L-1210 leukemia [8]; [18],129%
same,MST Days,L-1210 leukemia [8]; [18],9.0 days
same,Survivors Day 5,L-1210 leukemia [8]; [18],6/6
same,Average Weight Change,L-1210 leukemia [8]; [19],-0.8 g
same,MST %T/C,L-1210 leukemia [8]; [19],129%
same,MST Days,L-1210 leukemia [8]; [19],9.0 days
same,Survivors Day 5,L-1210 leukemia [8]; [19],6/6
same,Average Weight Change,L-1210 leukemia [8]; [20],0 g
same,MST %T/C,L-1210 leukemia [8]; [20],129%
same,MST Days,L-1210 leukemia [8]; [20],9.0 days
same,Survivors Day 5,L-1210 leukemia [8]; [20],6/6
same,Average Weight Change,L-1210 leukemia [8]; [21],0 g
same,MST %T/C,L-1210 leukemia [8]; [21],150%
same,MST Days,L-1210 leukemia [8]; [21],10.5 days
same,Survivors Day 5,L-1210 leukemia [8]; [21],6/6
same,Average Weight Change,L-1210 leukemia [8]; [22],-0.2 g
same,MST %T/C,L-1210 leukemia [8]; [22],143%
same,MST Days,L-1210 leukemia [8]; [22],10.0 days
same,Survivors Day 5,L-1210 leukemia [8]; [22],6/6
same,potency relative to musettamycin in inhibitory effects on L-1210,"L-1210 leukemia [8]; purified, L-1210 mouse leukemia",about four times
same,MIC,Proteus mirabilis A-9900; Proteus mirabilis,> 125 µg/mL
same,LD50,[9],6.35 to 10.6 mg/kg
same,MIC,Escherichia coli A-21780; Escherichia coli,32 µg/mL
same,activity on P-388 mouse leukemia,P-388 leukemia; Example 7 column fraction,high activity
same,MIC,[10]; Candida tropicalis,125 µg/mL
same,MIC,[11]; Staphylococcus aureus,1 µg/mL
CC[C@@]1(O)C[C@H](O[C@H]2C[C@H](N(C)C)[C@H](O[C@H]3C[C@H](O)[C@H](O)[C@H](C)O3)[C@H](C)O2)c2c(cc3c(c2O)C(=O)c2c(O)ccc(O)c2C3=O)[C@H]1C(=O)OC [musettamycin],MIC,"[1]; in vitro, Klebsiella pneumoniae A-9977, read-out: MIC",> 125 µg/mL
same,MIC,"[2]; in vitro, Streptococcus pneumoniae A-9585, read-out: MIC",0.06 µg/mL
same,MIC,"[3]; in vitro, Trichophyton mentagrophytes A-9870, read-out: MIC",> 125 µg/mL
same,activity of fraction,[12],active
same,MIC,"Candida krusei A-15052; in vitro, Candida krusei A-15052, read-out: MIC",125 µg/mL
same,"Avg. wt. Difference (T-C, g.)",L-1210 leukemia [4]; 3.2 mg/kg,-2.5 g
same,T/C Percent MST,L-1210 leukemia [4]; 3.2 mg/kg,120%
same,"Avg. wt. Difference (T-C, g.)",L-1210 leukemia [4]; 6.4 mg/kg,-2.5 g
same,T/C Percent MST,L-1210 leukemia [4]; 6.4 mg/kg,140%
same,"Avg. wt. Difference (T-C, g.)",L-1210 leukemia [4]; .8 mg/kg,-1.1 g
same,T/C Percent MST,L-1210 leukemia [4]; .8 mg/kg,107%
same,MIC,"[5]; in vitro, Cryptococcus neoformans A-1503, read-out: MIC",63 µg/mL
same,MIC,"[6]; in vitro, Staphylococcus aureus A-9537, read-out: MIC",1 µg/mL
same,MIC,"Candida albicans A-9540; in vitro, Candida albicans A-9540, read-out: MIC",125 µg/mL
same,MIC,"Escherichia coli A-15119; in vitro, Escherichia coli A-15119, read-out: MIC",> 125 µg/mL
same,MIC,"[7]; in vitro, Streptococcus pyogenes A-9604, read-out: MIC",0.06 µg/mL
same,Average Weight Change in g.,L-1210 leukemia [8]; [13],+0.3 g.
same,MST %T/C,L-1210 leukemia [8]; [13],129%
same,MST Days,L-1210 leukemia [8]; [13],9.0 days
same,Average Weight Change,L-1210 leukemia [8]; [14],-1.3 g
same,MST %T/C,L-1210 leukemia [8]; [14],157%
same,MST Days,L-1210 leukemia [8]; [14],11.0 days
same,Average Weight Change in g.,L-1210 leukemia [8]; [15],+0.5 g.
same,MST %T/C,L-1210 leukemia [8]; [15],143%
same,MST Days,L-1210 leukemia [8]; [15],10.0 days
same,Average Weight Change,L-1210 leukemia [8]; [23],-1.5 g
same,MST %T/C,L-1210 leukemia [8]; [23],86%
same,MST Days,L-1210 leukemia [8]; [23],6.0 days
same,Average Weight Change,L-1210 leukemia [8]; [17],-0.6 g
same,MST %T/C,L-1210 leukemia [8]; [17],150%
same,MST Days,L-1210 leukemia [8]; [17],10.5 days
same,Average Weight Change in g.,L-1210 leukemia [8]; [18],+1.8 g.
same,MST %T/C,L-1210 leukemia [8]; [18],129%
same,MST Days,L-1210 leukemia [8]; [18],9.0 days
same,Average Weight Change in g.,L-1210 leukemia [8]; [19],+1.3 g.
same,MST %T/C,L-1210 leukemia [8]; [19],114%
same,MST Days,L-1210 leukemia [8]; [19],8.0 days
same,Average Weight Change in g.,L-1210 leukemia [8]; [20],+0.6 g.
same,MST %T/C,L-1210 leukemia [8]; [20],129%
same,MST Days,L-1210 leukemia [8]; [20],9.0 days
same,Average Weight Change in g.,L-1210 leukemia [8]; [21],+1.2 g.
same,MST %T/C,L-1210 leukemia [8]; [21],121%
same,MST Days,L-1210 leukemia [8]; [21],8.5 days
same,Average Weight Change in g.,L-1210 leukemia [8]; [22],+0.4 g.
same,MST %T/C,L-1210 leukemia [8]; [22],136%
same,MST Days,L-1210 leukemia [8]; [22],9.5 days
same,MIC,"Proteus mirabilis A-9900; in vitro, Proteus mirabilis A-9900, read-out: MIC",> 125 µg/mL
same,LD50,[9],9.8 to 21.1 mg/kg
same,MIC,"Escherichia coli A-21780; in vitro, Escherichia coli A-21780, read-out: MIC",32 µg/mL
same,"Avg. wt. Difference (T-C, g.)",P-388 leukemia; 3.2 mg/kg,-3.0 g
same,T/C Percent MST,P-388 leukemia; 3.2 mg/kg,145%
same,"Avg. wt. Difference (T-C, g.)",P-388 leukemia; 6.4 mg/kg,-3.4 g
same,T/C Percent MST,P-388 leukemia; 6.4 mg/kg,160%
same,"Avg. wt. Difference (T-C, g.)",P-388 leukemia; .2 mg/kg,-2.1 g
same,T/C Percent MST,P-388 leukemia; .2 mg/kg,120%
same,"Avg. wt. Difference (T-C, g.)",P-388 leukemia; .4 mg/kg,-1.6 g
same,T/C Percent MST,P-388 leukemia; .4 mg/kg,135%
same,"Avg. wt. Difference (T-C, g.)",P-388 leukemia; .8 mg/kg,-2.0 g
same,T/C Percent MST,P-388 leukemia; .8 mg/kg,140%
same,Solubility,Solubility; organic solvents,Soluble in most organic solvents
same,Solubility,"Solubility; water, aliphatic hydrocarbons and ether","insoluble in water, aliphatic hydrocarbons and ether"
same,MIC,"[10]; in vitro, Candida tropicalis A-15051, read-out: MIC",63 µg/mL
same,MIC,"[11]; in vitro, Staphylococcus aureus A-9497, read-out: MIC",0.5 µg/mL
